Results taken from US20110045065A1, “SUBSTANCE HAVING ANTIOXIDANT, GEROPROTECTIVE AND ANTI-ISCHEMIC ACTIVITY AND METHOD FOR THE PREPARATION THEREOF” (priority 2005, published 2011).

Tests used:
[1] = test system: external segments of photoreceptor cells; assay: Ascorbate-induced peroxidation of external segments of photoreceptor cells; type: biochemical, pig; details: for Inhibition: 30 min of reacting; for Concentration of TBK-active products: 17 mM compound, 0.5 mM ascorbic acid
Description: The external segments of photoreceptor cells are obtained from pig retinas according to standard procedure, using methods of differential centrifuging in a saccharose density gradient. […] Subsequently, the process was stopped by 15% trichloroacetic acid, and the concentration of TBK-active products has been determined. Samples being free of compound Ic were used as a control.
In these experiments a comparison of the speed of ascorbate-induced peroxidation of external segments of photoreceptor cells of pig eyes has been carried out, said comparison being determined with respect to the accumulation of TBK-active products in the presence of different compound I salts.

[2] = test system: lipofuscin induced cardiolipin photoperoxidation; assay: Inhibition of lipofuscin induced cardiolipin liposome photoperoxidation; type: biochemical, human; details: for Concentration of TBK-active products / Inhibition: 2 mM compound
Description: Liposomes are prepared from methanolic solution of cardiolipin (initial concentration: 5 mg/ml) by evaporation of methanol and solubilization of cardiolipin in a phosphate buffer. A mixture comprising a suspension of liposomes and lipofuscin granules, isolated from tissue of a retinal pigmentary epithelium of a human eye, is subjected to irradiation with intensive blue light under constant stirring. Concentration of lipid peroxidation products (TBK-active products) is determined after 20, 40, 60 and 90 minutes. The experimental sample contained 2 mM of a solution of compound Ic, or 2 mM of a solution of mexydole.

[3] = Antiradical activity by chemiluminescence (rate constant k7); type: physicochemical; details: speed constant of reaction with ethyl-benzene peroxide radicals
Description: The efficiency of 3-hydroxypyridine derivatives as inhibitors of free radical reactions was determined by hemiluminescent method by means of measurement of speed constants of their reaction with ethyl-benzene k7 peroxide radicals.
The measurements of intensity of chemiluminescence (HL) have been carried out with an apparatus CNK-7, designed and made by IHF RAN USSR. A photomultiplier FAU-38 is used as an optical receiver. The fixed concentration of radicals during oxidation of […] (cumole) is controlled by an initiator being azo-bis-isobutyronitrile.
In order to increase HL emission the activator chelate Eu (europium tristenoyl triphtoroacetonate with 1,10-phenatroline) has been used that has allowed to conduct measurements at low speed values of radical initiation (W1=10^−8-10^−9 mol/I.s.) and, therefore, at small amounts of added sample. A weighed amount of samples studied was diluted in an suitable solvent (chlorobenzene or acetonitrile) and a small amount of the prepared solution (0.1-0.25 ml) was added to the reaction mixture (5-6 ml), arranged in a temperature-controlled reaction vessel of the HL-device. The change of emission intensity was recorded.

[4] = test system: acute myocardial ischemia (occlusion of the coronary artery of rats); assay: Sizes of necrosis and ischemia zones in acute myocardial ischemia; type: in vivo, rat; details: rats, within 4 hours after occlusion of the coronary artery
Description: The experiments are carried out with non-pedigree male rats having a weight of 250-300 g, which have been anesthetized with sodium ethaminale (40 mg/kg intraperitoneally). A myocardial infarction was modeled for animals, transferred to controlled breathing, by ligation of a descending branch of the left-hand coronary artery to a level of the lower edge of an auricula atrii.
The sizes of necrosis zones and ischemia zones have been determined within 4 hours after occlusion of the coronary artery by a differential indicator method, the principle of which is based on separate quantitative determination of Evans' blue (indicator of an ischemia zone) and red phormazane (indicator of an necrosis zone).

## Cc1cc(C)c(O)c(C)n1.O=C(O)C(=O)O [Compound Ia, 2,4,6-trimethyl-3-oxypyridine oxalate]
[1]; compound 44 mM
  Speed of accumulation of TBK-active products for 30 min of reacting: 0 nmol/mg
  Inhibition: 100%

## Cc1cc(C)c(O)c(C)n1.O=C(O)CC(=O)O [Compound Ib, 2,4,6-trimethyl-3-oxypyridine malonate]
[1]; compound 44 mM
  Speed of accumulation of TBK-active products for 30 min of reacting: 0.23 nmol/mg
  Inhibition: 70%
[1]; response time 0 min
  Concentration of TBK-active products: 1 relative units
[1]; response time 15 min
  Concentration of TBK-active products: 2.70 relative units
[1]; response time 30 min
  Concentration of TBK-active products: 5.09 relative units

## Cc1cc(C)c(O)c(C)n1.O=C(O)CC(O)C(=O)O [Compound Id, 2,4,6-trimethyl-3-oxypyridine malate]
[1]; compound 43 mM
  Speed of accumulation of TBK-active products for 30 min of reacting: 0.1 nmol/mg
  Inhibition: 87%

## CCc1ccc(O)c(C)n1.O=C(O)CCC(=O)O [Mexydole, 2-methyl-6-ethyl-3-hydroxypyridine succinate, reference compound]
[2]; radiation time 0 min
  Concentration of TBK-active products: 1.83 nmol/mg lipid
  Inhibition: 0%
[2]; radiation time 20 min
  Concentration of TBK-active products: 2.84 nmol/mg lipid
  Inhibition: 5%
[2]; radiation time 40 min
  Concentration of TBK-active products: 3.5 nmol/mg lipid
  Inhibition: 0%
[2]; radiation time 60 min
  Concentration of TBK-active products: 4.5 nmol/mg lipid
  Inhibition: 0%
[2]; radiation time 90 min
  Concentration of TBK-active products: 5.0 nmol/mg lipid
  Inhibition: 7%
[2]; result in words
  Inhibiting / protective effect regarding phototoxic action of lipofuscin granules: practically did not show an inhibiting effect
[3]
  k7 × 10^−4: 4.5 l/mol × sec
[4]; 26 mg/kg
  Ratio of necrosis zone to ischemia zone: 46 ± 5.6%
  Ratio of necrosis zone to total mass of the myocardium: 8 ± 1.4%

## O=C(NCCO[N+](=O)[O-])c1cccnc1 [Nicorandile]
[4]; 12 mg/kg
  Ratio of necrosis zone to ischemia zone: 42 ± 5.4%
  Ratio of necrosis zone to total mass of the myocardium: 10 ± 1.6%
